Literature values as cited in patent US8333981B2, “Antifungal treatment of nails” (Humco Holding Group, Inc., priority 2007, dated 2012).
Like-named read-outs stand apart in the source and are kept apart here.

Columns and labels:
[1] = tested on: onychomycosis of fingernails and toenails due to Trichophyton rubrum; settings: after several months of use
[2] = in vivo, po
[3] = not told
[4] = tested on: fungi known to cause onychomycosis
[5] = tested on: chronic infections of the nails; settings: human, in vivo
[6] = tested on: C. albicans (monilia), C. neoformans, B. dermatitidis, A. israelii, H. capsulatum, C. immitis, M. furfur (tinea versicolor) and bacteria
[7] = human, in vivo
[8] = not told; remark: listed apart in the source
[9] = in vitro

Cc1cc(C2CCCCC2)n(O)c(=O)c1 [Ciclopirox, ciclopirox]
cure rate [1]: 14%

Clc1ccc(COC(Cn2ccnc2)c2ccc(Cl)cc2Cl)c(Cl)c1 (centres unmarked) [Water-soluble miconazole, miconazole]
dermatophyte isolates being sensitive (dermatophyte isolates): 75%

CCC(C)n1ncn(-c2ccc(N3CCN(c4ccc(OCC5COC(Cn6cncn6)(c6ccc(Cl)cc6Cl)O5)cc4)CC3)cc2)c1=O (centres unmarked) [itraconazole]
total observed incidence of adverse events possibly or directly drug-related [2]: 18.2%

Cc1cccc(N(C)C(=S)Oc2ccc3ccccc3c2)c1 [Tolnaftate]
dermatophyte isolates being sensitive (dermatophyte isolates): 47.22%

NC(N)=O [Urea]
drug permeability compared to control [3]: significant increase

Cc1ccc(C(C)C)c(O)c1 [Thymol]
effect on fungi causing onychomycosis / toenail infection [4]: effective

COC1=CC(=O)C[C@@H](C)[C@]12Oc1c(Cl)c(OC)cc(OC)c1C2=O [Griseofulvin, griseofulvin]
cure rates [5]: poor cure rates | activity against listed organisms [6]: inactive

OC(Cn1cncn1)(Cn1cncn1)c1ccc(F)cc1F [fluconazole]
patients who experienced adverse events [7]: Sixteen

CCO [ethanol]
average permeability coefficient [8]: 5.8+/−3.1×10(−3) cm hr-1

O [water]
average permeability coefficient [8]: 16.5+/−5.9×10(−3) cm hr-1 | permeability coefficient (not told): 4.58 ×10⁻⁶ cm/s

Clc1ccccc1C(c1ccccc1)(c1ccccc1)n1ccnc1 [Clotrimazole]
dermatophyte isolates being sensitive (dermatophyte isolates): 30.55%

CC12CCC(CC1=O)C2(C)C (centres unmarked) [Camphor]
anti-fungal activity (toenail fungus): little or no detectable anti-fungal activity

O=C([O-])CS.[Na+] [Sodium Thioglycolate]
increase in flux compared to the control [9]: 3.8 fold

CCCCCCCCO [n-octanol]
permeability coefficient: 0.075 ×10⁻⁶ cm/s

CC1CCC(C(C)C)C(O)C1 (centres unmarked) [Menthol]
effect on fungi causing onychomycosis / toenail infection [4]: specifically inhibits the growth
